This note sets out measurements from the kinase profiling compilation of Christmann-Franck et al. (2016).

Common to all, as to test: KINOMEscan competition binding
What all share (conditions): compound 10.0 µM

In experiment [1] the test system is BMX (human), P51813 [V600E].
The subject of experiment [2] is EGFR (human), P00533 [L858R].
The subject of experiment [3] is RET (human), P07949 [V804L].
The subject of experiment [4] is PIK3CA (human), P42336 [E542K].
The test system of experiment [5] is KIT (human), P10721 [D816H].
For experiment [6], the system named is EGFR (human), P00533 [A750P; 747-749 del].
The test system of experiment [7] is FGFR3 (human), P22607 [G697C].
Experiment [8] deals with EGFR (human), P00533 [G719C].
The test system of experiment [9] is FLT3 (human), P36888 [D835Y].
The subject of experiment [10] is KIT (human), P10721 [A829P].
For experiment [11], the system named is LRRK2 (human), Q5S007 [G2019S].
The test system of experiment [12] is MET (human), P08581 [M1250T].
In experiment [13] the test system is PIK3CA (human), P42336 [H1047L].
The test system of experiment [14] is PIK3CA (human), P42336 [M1043I].
Experiment [15] concerns ABL1 (human), P00519 [F317L].
Experiment [16] deals with ABL1 (human), P00519 [F317I].

Chain of KIT (human), P10721 [A829P] (P10721 whole entry A829P, looked up): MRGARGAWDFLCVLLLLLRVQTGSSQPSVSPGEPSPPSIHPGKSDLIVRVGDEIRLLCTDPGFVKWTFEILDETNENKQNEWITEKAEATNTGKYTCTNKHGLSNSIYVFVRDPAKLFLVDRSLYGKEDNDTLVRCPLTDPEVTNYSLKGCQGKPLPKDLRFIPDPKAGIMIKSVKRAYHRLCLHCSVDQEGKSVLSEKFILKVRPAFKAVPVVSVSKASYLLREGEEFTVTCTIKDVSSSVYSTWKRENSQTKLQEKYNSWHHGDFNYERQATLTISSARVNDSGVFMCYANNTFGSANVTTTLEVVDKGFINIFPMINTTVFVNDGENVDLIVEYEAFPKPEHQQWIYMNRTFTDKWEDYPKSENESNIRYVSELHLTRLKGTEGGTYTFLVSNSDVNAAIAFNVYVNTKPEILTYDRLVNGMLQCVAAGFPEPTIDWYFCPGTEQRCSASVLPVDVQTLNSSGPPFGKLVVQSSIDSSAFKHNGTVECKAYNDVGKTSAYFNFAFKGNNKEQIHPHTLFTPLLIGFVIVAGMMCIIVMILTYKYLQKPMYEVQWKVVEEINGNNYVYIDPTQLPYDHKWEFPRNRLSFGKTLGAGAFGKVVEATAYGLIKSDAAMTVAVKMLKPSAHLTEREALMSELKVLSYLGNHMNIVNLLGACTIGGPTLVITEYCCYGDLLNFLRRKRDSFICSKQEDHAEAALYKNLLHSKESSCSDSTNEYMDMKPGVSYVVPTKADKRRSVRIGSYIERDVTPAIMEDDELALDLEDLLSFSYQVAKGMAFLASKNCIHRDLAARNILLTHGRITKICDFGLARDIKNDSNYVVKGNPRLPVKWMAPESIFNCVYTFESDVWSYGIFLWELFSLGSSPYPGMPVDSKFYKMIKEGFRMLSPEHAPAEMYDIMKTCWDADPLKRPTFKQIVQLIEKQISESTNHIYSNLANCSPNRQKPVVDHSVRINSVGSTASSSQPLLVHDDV
Chain of PIK3CA (human), P42336 [H1047L] (P42336 whole entry H1047L, looked up): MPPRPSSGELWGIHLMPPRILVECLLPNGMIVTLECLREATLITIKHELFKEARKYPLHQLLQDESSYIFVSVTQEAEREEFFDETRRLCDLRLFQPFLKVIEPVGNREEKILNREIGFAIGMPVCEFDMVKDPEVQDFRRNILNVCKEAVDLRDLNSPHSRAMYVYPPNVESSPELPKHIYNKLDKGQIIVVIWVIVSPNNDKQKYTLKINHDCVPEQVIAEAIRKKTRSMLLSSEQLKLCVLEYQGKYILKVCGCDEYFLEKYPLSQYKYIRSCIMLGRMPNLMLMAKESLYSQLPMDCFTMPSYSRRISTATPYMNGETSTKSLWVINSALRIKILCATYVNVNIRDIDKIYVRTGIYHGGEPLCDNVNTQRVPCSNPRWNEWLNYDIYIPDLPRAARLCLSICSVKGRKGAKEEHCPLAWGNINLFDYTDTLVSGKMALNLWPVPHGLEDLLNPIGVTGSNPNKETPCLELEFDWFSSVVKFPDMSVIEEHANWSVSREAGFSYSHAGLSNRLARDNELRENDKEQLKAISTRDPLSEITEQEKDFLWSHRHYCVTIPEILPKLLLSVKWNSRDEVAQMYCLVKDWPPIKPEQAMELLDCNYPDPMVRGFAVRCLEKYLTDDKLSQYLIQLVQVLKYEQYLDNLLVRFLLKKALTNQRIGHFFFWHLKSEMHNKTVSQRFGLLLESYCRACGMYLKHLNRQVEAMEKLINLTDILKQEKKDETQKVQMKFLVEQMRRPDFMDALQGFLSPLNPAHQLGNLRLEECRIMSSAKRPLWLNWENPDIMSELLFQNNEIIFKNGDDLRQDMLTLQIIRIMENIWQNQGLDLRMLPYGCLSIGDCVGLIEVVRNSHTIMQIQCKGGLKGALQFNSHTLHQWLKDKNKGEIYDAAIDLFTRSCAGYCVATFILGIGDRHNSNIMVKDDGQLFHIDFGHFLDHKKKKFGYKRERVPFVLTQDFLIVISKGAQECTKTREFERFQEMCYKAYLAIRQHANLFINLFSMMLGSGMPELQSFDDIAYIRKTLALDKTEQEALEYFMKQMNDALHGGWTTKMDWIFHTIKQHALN
Chain of RET (human), P07949 [V804L] (P07949 whole entry V804L, looked up): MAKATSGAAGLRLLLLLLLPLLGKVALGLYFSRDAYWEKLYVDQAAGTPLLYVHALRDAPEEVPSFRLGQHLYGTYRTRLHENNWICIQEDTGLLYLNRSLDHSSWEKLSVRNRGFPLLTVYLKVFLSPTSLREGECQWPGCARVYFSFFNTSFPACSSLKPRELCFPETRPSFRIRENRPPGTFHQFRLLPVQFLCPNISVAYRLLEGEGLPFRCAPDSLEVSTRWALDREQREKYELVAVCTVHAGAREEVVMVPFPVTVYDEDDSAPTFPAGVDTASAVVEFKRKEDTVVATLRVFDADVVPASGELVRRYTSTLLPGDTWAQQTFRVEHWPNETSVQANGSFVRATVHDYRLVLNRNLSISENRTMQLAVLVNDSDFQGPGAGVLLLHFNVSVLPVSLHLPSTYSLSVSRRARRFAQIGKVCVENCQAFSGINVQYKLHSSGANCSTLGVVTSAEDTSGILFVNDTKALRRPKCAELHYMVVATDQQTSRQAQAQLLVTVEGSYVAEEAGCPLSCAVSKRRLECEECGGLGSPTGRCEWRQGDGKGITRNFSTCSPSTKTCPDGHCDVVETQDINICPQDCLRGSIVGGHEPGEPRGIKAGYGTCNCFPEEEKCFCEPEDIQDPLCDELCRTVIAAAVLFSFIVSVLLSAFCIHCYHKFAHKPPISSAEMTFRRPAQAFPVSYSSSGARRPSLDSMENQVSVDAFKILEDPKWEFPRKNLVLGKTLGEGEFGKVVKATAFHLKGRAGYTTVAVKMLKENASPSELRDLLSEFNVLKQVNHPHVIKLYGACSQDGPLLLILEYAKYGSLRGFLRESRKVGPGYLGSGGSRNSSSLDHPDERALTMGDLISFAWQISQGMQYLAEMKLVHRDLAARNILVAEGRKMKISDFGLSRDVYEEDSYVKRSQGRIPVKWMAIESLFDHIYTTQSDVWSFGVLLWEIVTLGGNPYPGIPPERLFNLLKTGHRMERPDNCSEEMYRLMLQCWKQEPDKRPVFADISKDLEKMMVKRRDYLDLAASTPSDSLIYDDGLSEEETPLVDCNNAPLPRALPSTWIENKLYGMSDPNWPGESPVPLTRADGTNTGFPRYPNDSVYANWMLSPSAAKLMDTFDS
Chain of KIT (human), P10721 [D816H] (P10721 whole entry D816H, looked up): as the sequence (P10721 whole entry A829P, looked up) above, with D816H, P829A counted along it
Chain of PIK3CA (human), P42336 [M1043I] (P42336 whole entry M1043I, looked up): as the sequence (P42336 whole entry H1047L, looked up) above, with M1043I, L1047H counted along it
Chain of FGFR3 (human), P22607 [G697C] (P22607 whole entry G697C, looked up): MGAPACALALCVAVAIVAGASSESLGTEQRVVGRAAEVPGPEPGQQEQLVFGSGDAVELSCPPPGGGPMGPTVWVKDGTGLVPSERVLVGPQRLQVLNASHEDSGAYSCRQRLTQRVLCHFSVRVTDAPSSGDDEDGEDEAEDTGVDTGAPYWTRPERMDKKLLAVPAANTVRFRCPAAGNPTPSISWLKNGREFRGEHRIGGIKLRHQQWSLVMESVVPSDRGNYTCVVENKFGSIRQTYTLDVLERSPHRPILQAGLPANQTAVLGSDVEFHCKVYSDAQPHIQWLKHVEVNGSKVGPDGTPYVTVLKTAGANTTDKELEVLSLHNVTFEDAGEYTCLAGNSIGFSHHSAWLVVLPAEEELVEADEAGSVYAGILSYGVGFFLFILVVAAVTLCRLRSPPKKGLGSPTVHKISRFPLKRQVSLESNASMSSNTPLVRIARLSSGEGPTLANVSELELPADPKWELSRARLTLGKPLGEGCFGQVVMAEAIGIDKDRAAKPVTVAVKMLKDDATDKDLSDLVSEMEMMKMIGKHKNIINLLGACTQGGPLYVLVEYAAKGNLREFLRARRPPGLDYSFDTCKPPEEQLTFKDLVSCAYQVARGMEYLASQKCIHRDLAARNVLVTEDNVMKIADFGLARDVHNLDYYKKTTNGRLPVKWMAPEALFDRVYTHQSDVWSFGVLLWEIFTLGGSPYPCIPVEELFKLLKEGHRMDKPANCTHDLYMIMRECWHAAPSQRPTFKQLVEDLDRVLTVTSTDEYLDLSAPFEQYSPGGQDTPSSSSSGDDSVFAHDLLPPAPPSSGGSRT
Chain of BMX (human), P51813 [V600E] (P51813 whole entry, looked up, stated change not applied): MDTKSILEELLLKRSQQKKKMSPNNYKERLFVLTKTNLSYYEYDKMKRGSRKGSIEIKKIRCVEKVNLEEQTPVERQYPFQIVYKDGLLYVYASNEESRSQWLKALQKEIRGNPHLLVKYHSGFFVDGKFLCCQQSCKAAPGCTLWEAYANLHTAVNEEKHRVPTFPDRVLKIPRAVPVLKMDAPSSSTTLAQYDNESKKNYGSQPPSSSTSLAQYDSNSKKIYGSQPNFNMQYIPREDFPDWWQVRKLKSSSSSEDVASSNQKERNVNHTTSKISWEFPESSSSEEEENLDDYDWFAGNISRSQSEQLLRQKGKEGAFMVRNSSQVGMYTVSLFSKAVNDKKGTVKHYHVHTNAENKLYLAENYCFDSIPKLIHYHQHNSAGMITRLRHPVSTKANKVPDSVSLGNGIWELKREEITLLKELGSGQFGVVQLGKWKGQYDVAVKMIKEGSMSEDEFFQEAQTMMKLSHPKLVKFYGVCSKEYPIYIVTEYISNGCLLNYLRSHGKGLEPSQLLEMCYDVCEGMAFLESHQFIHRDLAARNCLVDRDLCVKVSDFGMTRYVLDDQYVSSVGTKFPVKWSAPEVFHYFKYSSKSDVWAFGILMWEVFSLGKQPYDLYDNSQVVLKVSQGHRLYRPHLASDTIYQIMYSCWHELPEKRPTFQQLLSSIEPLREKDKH
Chain of PIK3CA (human), P42336 [E542K] (P42336 whole entry E542K, looked up): as the sequence (P42336 whole entry H1047L, looked up) above, with E542K, L1047H counted along it

`O=C(NC1CC1)c1cccc(-c2ccc3c(NC(=O)C4CC4)n[nH]c3c2)c1`: the kinase still bound, per cent of control in [1] was 65%; in [2], 93%; in experiment [3], 96%; in experiment [4], 100%; in experiment [5], 75%; in [6], 82%. Besides, the kinase still bound, per cent of control was determined as 100% in experiment [7]; 73% in experiment [8]; 15% in experiment [9]; 76% in experiment [10]; 87% in [11]; 73% in experiment [12]. Moreover, the kinase still bound, per cent of control in [13] was determined as 98%; in experiment [14], 92%.
`C=CC(=O)Nc1cc(-n2c(=O)ccc3cnc4ccc(-c5cn[nH]c5)cc4c32)ccc1C`: the kinase still bound, per cent of control in experiment [1] came out at 91%; in [2], 41%; in experiment [3], 79%; in experiment [4] it was 20%; in [5] it was 14%; in experiment [6], 26%. The kinase still bound, per cent of control in experiment [7] was 74%; in [8], 100%; in experiment [9] it was 1.2%; in experiment [10] it was 36%; in experiment [11], 6.4%; in experiment [12], 80%. Further, the results for the kinase still bound, per cent of control in [13] and in [14] were 4.6% and 15%, respectively.
`C=CC(=O)Nc1cc(NC(=O)c2ccc(C)c(NC(=O)c3ccno3)c2)cc(C(F)(F)F)c1`: the kinase still bound, per cent of control in [1] was found to be 19%; in experiment [2], 100%; in experiment [3] it was 100%; in experiment [4], 88%; in experiment [5], 75%; in [6], 100%. Moreover, the kinase still bound, per cent of control in experiment [7] came to 91%; in experiment [8] it was 94%; in experiment [9] it was 100%; in experiment [10], 54%; in experiment [11], 85%; in experiment [12] it was 86%. In addition, the kinase still bound, per cent of control in [13] worked out at 73%; in experiment [14], 93%.
For `Cc1ccc(NC(=O)c2cccc(C(C)(C)C#N)c2)cc1Nc1ccc2ncn(C)c(=O)c2c1`, the kinase still bound, per cent of control in [1] is 0%; in [2] it was 48%; in [3] it was 31%; in experiment [4] it was 100%; in experiment [5] it was 57%; in [6] it was 11%. Besides, the kinase still bound, per cent of control in experiment [7] came to 100%; in [8], 49%; in experiment [9], 100%; in experiment [10], 100%; in experiment [11], 69%; in [12] it was 64%. The kinase still bound, per cent of control was 100% in experiment [13] and 89% in experiment [14].
As for `CN(C)C/C=C/C(=O)Nc1ccc(C(=O)Nc2cccc(Nc3nccc(-c4cccnc4)n3)c2)cc1`, the kinase still bound, per cent of control came out at 63% in experiment [1]; 99% in experiment [2]; 84% in [3]; 100% in [4]; 51% in [5]; 100% in experiment [6]. Further, the kinase still bound, per cent of control in experiment [7] was 84%; in [8], 83%; in experiment [9] it was 18%; in [10], 64%; in experiment [11], 76%; in experiment [12], 100%. Also, the kinase still bound, per cent of control in experiment [13] and in experiment [14] was 100% throughout.
As for `O=C1Nc2ccc(I)cc2/C1=C/c1cc(Br)c(O)c(Br)c1`, the kinase still bound, per cent of control came to 0.1% in [1]; 32% in experiment [2]; 100% in experiment [3]; 84% in experiment [4]; 99% in [5]; 36% in experiment [6]. Moreover, the kinase still bound, per cent of control is 76% in experiment [7]; 80% in [8]; 13% in [9]; 93% in [10]; 9% in [11]; 80% in [12]. For the same compound, the values for the kinase still bound, per cent of control in experiment [13] and in experiment [14] were 97% and 76%, respectively.
Regarding `COc1cc(N2CCN(C)CC2)ccc1Nc1nc(N)c(C(=O)c2c(Cl)cccc2Cl)s1`, the kinase still bound, per cent of control in experiment [1] worked out at 100%; in [2] it was 100%; in experiment [3] it was 100%; in [4], 100%; in [5], 86%; in [6], 100%. The kinase still bound, per cent of control stood at 100% in [7]; 91% in [8]; 100% in experiment [9]; 81% in experiment [10]; 97% in experiment [11]; 100% in [12]. Moreover, the kinase still bound, per cent of control in experiment [13] and in [14] was 100% in each case.
As to `Cc1n[nH]c2ccc(-c3cncc(OC[C@@H](N)Cc4c[nH]c5ccccc45)c3)cc12`, the kinase still bound, per cent of control in experiment [1] is 100%; in [3] it was 12%; in [7] it was 100%; in [9], 0.2%; in experiment [15] it was 100%; in experiment [16], 100%.
`O=C1NC(=O)/C(=C/c2ccc3nccc(-c4ccncc4)c3c2)S1`: the kinase still bound, per cent of control in experiment [1] amounted to 41%; in experiment [2], 43%; in experiment [3] it was 100%; in [4] it was 0.2%; in experiment [5], 89%; in [6], 47%. Further, the kinase still bound, per cent of control in experiment [7] was 100%; in [8], 54%; in experiment [9], 28%; in experiment [10], 88%; in experiment [11], 58%; in experiment [12], 40%. Besides, the kinase still bound, per cent of control in experiment [13] came out at 27%; in [14], 0%.
Consider `C[C@@H](Oc1cc(-n2cnc3ccc(CN4CCN(C)CC4)cc32)sc1C(N)=O)c1ccccc1C(F)(F)F`, for which the kinase still bound, per cent of control is 58% in [1]; 86% in experiment [2]; 100% in [3]; 91% in [4]; 40% in experiment [5]; 81% in experiment [6]. For the same compound, the kinase still bound, per cent of control in experiment [7] came out at 75%; in experiment [8], 100%; in experiment [9] it was 21%; in [10] it was 29%; in experiment [11] it was 40%; in [12] it was 93%. Besides, the kinase still bound, per cent of control in experiment [13] is 16%; in experiment [14] it was 63%.
With `CCOc1cc2ncc(C#N)c(Nc3ccc(OCc4ccccn4)c(Cl)c3)c2cc1NC(=O)/C=C/CN(C)C`, the kinase still bound, per cent of control in [1] turned out to be 100%; in experiment [3] it was 100%; in [4], 100%; in [5], 88%; in experiment [7], 100%; in [10], 100%. The kinase still bound, per cent of control in [11] amounted to 85%; in experiment [12], 47%; in experiment [13], 100%; in [14] it was 100%; in experiment [15] it was 100%.
